The structures appear in SMILES notation. Residues, ends and D or L forms follow the SMILES beside them.

Test [1] has as its target T1, binding between TBK1 and full-length Regnase-1 (FL_Reg1) (Homo sapiens, UniProt Q5D1E8).
T1 construct: made in house; host or cells: Expi293 cells
T1 sequence (Q5D1E8 1-599): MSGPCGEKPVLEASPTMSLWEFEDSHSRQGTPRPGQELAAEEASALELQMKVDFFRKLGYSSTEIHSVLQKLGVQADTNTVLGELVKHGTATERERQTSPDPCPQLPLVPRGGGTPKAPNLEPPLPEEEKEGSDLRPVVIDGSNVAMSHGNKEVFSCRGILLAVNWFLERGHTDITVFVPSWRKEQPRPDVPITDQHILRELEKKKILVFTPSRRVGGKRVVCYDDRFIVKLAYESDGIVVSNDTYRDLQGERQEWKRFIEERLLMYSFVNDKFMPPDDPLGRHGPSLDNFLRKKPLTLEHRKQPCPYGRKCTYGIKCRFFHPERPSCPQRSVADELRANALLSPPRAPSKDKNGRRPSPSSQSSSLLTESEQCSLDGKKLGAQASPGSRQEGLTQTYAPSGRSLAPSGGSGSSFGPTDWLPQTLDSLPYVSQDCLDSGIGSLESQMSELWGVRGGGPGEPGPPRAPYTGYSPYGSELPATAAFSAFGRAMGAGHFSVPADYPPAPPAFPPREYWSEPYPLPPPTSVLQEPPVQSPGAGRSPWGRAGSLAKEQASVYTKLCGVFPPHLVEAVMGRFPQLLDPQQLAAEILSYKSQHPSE
Briefly: Inhibition of kinase-Regnase-1 binding by the compounds (AlphaScreen), TBK1. The following applies: Table 13; binding between TBK1 and Regnase-1; read-out: Binding inhibition FL_Reg1, 50% inhibition concentration (TBK1). How it is done: (§1) As a target protein, a construct having a FLAG tag on the N-terminal side and a recognition sequence for biotin ligase BirA on the C-terminal side of the full-length sequence of human Regnase-1 (UniProt ID: Q5D1E8) was prepared (FL_Reg1). The above-mentioned Regnase-1 was expressed in mammalian Expi293 cells, purified with FLAG M2 agarose, and isolated by gel filtration chromatography. When biotinylation was required, methods from nonpatent documents (BMC biotechnology, 2008,8,41; and Protein Science, 1999,8,921-929) were used.
(§2) After mixing 2.5 nM of the above-mentioned Regnase-1 and the compound, 2.5 nM of IKKβ or TBK1 was added and reacted at room temperature for two hours. Then, Anti FLAG AlphaLISA Acceptor Beads (manufactured by PerkinElmer) and Glutathione-coated AlphaScreen Donor Beads (manufactured by PerkinElmer) were added, and excited luminescence was measured using En Vision (manufactured by PerkinElmer). As the results, the inhibition rate from the signals obtained when adding the compound at each concentration were calculated, by defining the signal obtained with Regnase-1 alone to be 100% inhibition rate, and the signal obtained when the same amount of solvent (DMSO) is added in place of the compound as 0% inhibition rate. The 50% inhibition concentration (μM) was calculated from the obtained dose response curve (Table 12).

Test [2] has as its target T2, FL_Reg1 (full-length human Regnase-1) phosphorylation by TBK1 (Homo sapiens, UniProt Q5D1E8).
T2 construct: made in house; host or cells: Expi293 cells
T2 sequence (Q5D1E8 1-599): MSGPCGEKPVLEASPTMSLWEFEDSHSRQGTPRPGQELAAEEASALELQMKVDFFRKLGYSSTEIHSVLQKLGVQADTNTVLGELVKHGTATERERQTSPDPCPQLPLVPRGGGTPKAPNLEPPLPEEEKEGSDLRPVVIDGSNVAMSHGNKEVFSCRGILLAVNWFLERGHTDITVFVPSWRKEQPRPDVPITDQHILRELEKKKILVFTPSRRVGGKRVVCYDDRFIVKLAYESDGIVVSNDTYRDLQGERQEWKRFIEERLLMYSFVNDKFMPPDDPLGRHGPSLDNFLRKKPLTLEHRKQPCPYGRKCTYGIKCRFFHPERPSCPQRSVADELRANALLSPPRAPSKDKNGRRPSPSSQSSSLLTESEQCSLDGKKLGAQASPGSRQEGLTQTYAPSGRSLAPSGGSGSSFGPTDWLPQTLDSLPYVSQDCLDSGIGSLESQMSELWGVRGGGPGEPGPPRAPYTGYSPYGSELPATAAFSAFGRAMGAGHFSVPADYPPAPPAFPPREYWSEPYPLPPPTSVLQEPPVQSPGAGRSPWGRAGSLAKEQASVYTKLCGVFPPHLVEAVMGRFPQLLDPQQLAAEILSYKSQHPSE
Briefly: Regnase-1 phosphorylation inhibition by compounds (AlphaScreen), TBK1, full-length Regnase-1. The following applies: Table 13; phosphorylation by TBK1; read-out: Phosphorylation inhibition FL_Reg1, 50% inhibition concentration (TBK1). It counts as biochemical. From the text:
(§3) The full-length sequence of human Regnase-1 (UniProt ID: Q5D1E8) was used to prepare a construct having a FLAG tag on the N-terminal side and a recognition sequence for biotin ligase BirA on the C-terminal side (FL_Reg1) as a target protein. The above-mentioned Regnase-1 was expressed in mammalian Expi293 cells, purified with FLAG M2 agarose, and isolated by gel filtration chromatography. When biotinylation was required, methods from nonpatent documents (BMC biotechnology, 2008,8,41; and Protein Science, 1999,8,921-929) were used. […]
(§4) Using Kinase assay buffer III (manufactured by SignalChem) supplemented with 2 mM DTT, 100 μM sodium vanadate, and 2 mM manganese chloride, kinase (IKKβ (manufactured by SignalChem) or TBK1 (manufactured by SignalChem)) and Regnase-1 were reacted in the presence of 10 μM ATP at room temperature for 2 hours to perform a phosphorylation reaction.
(§5) Phosphorylated Regnase-1 was detected by the AlphaScreen system. After each of the above-mentioned phosphorylated Regnase-1 antibodies was added and reacted at room temperature for one hour, anti-FLAG AlphaLISA Acceptor Beads (manufactured by PerkinElmer) and Protein A AlphaScreen Donor Beads (manufactured by PerkinElmer) were added, and EnVision (manufactured by PerkinElmer) was used to measure the excited luminescence. As a result, phosphorylated Regnase-1 produced by the phosphorylation reaction by kinase was specifically detected, and signals were confirmed to be enhanced in a manner dependent on Regnase-1 and kinase concentrations (FIG. 24).
(§6) After mixing 2 nM of the above-mentioned Regnase-1 and the compound, phosphorylated Regnase-1 produced by the phosphorylation reaction was detected by the AlphaScreen system. As the results, the inhibition rate was calculated from the signals obtained when adding the compound at each concentration, by defining the signal obtained with Regnase-1 alone to be 100% inhibition rate, and the signal obtained when the same amount of solvent (DMSO) is added in place of the compound as 0% inhibition rate. The 50% inhibition concentration (μM) was calculated from the obtained dose response curve (Table 11).
In general terms: Alpha assays give light when donor and acceptor beads are brought close together.

Test [3] concerns the target T3, FL_Reg1 (full-length human Regnase-1) phosphorylation by IKKβ (Homo sapiens, UniProt Q5D1E8).
T3 construct: made in house; host or cells: Expi293 cells
T3 sequence (Q5D1E8 1-599): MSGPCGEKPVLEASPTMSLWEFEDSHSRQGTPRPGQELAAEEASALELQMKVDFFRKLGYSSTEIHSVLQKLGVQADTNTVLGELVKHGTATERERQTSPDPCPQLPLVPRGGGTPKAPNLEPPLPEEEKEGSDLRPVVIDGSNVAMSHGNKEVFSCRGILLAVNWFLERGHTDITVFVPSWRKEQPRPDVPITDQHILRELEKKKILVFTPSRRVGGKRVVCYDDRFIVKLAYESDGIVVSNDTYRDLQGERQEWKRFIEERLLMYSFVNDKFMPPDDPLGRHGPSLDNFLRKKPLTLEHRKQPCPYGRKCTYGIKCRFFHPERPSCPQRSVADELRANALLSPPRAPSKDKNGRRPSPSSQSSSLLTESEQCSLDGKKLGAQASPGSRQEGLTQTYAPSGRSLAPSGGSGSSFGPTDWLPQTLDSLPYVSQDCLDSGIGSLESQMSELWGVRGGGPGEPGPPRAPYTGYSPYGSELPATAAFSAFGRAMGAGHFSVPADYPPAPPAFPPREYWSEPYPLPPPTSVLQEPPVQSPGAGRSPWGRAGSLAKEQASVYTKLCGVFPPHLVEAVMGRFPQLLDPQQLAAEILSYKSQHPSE
Briefly: Regnase-1 phosphorylation inhibition by compounds (AlphaScreen), IKKβ, full-length Regnase-1. The class given is biochemical. The following applies: Table 14; phosphorylation by IKKβ; read-out: Phosphorylation inhibition FL_Reg1, 50% inhibition concentration (IKKβ).
Source text: as §3, §4, §5, §6

Test [4] deals with T4, binding between IKKβ and full-length Regnase-1 (FL_Reg1) (Homo sapiens, UniProt Q5D1E8).
T4 construct: made in house; host or cells: Expi293 cells
T4 sequence (Q5D1E8 1-599): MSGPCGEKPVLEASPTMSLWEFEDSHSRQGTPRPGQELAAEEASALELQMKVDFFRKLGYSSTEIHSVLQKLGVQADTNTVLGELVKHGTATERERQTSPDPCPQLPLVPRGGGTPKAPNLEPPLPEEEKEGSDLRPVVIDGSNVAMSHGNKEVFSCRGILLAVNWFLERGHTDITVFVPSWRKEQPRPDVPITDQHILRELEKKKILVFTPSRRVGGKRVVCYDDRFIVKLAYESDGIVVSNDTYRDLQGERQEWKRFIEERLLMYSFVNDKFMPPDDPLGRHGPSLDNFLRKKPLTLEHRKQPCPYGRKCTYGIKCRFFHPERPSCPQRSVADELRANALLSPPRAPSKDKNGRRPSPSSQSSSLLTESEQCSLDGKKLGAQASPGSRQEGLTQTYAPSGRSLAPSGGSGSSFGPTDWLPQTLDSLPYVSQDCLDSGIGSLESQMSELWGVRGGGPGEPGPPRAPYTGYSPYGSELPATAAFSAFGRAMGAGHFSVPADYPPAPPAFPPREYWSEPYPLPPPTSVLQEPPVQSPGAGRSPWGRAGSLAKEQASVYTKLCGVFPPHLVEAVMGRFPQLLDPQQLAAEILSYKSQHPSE
In words: Inhibition of kinase-Regnase-1 binding by the compounds (AlphaScreen), IKKβ. The following applies: Table 14; binding between IKKβ and Regnase-1; read-out: Binding inhibition FL_Reg1, 50% inhibition concentration (IKKβ). The protocol: as §1, §2

With `CC[C@H](C)[C@@H]1NC(=O)[C@H](Cc2c[nH]c3ccccc23)NC(=O)[C@H](C)N(C)C(=O)C[C@@H](C(=O)N2CCCC2)NC(=O)[C@H](CCC(=O)O)NC(=O)[C@H](CC(N)=O)NC(=O)[C@H](Cc2c[nH]c3ccccc23)NC(=O)[C@H](Cc2ccccc2)NC(=O)[C@H](CC(=O)O)NC(=O)[C@H](Cc2c[nH]c3ccccc23)NC1=O` [PP24] (HELM PEPTIDE1{[meA].W.I.W.D.F.W.N.E.D.[C1CCN([*:1])C1]}$PEPTIDE1,PEPTIDE1,1:R1-10:R3$$$V2.0), the IC50 was found to be 7.7 µM in test [1], 35.7 µM in test [2], 5.3 µM in test [3] and 8.8 µM in test [4].
Taken in the same sequence, the figures for `CC[C@H](C)[C@@H]1NC(=O)[C@H](CCCCN)NC(=O)[C@H](Cc2ccc(O)cc2)NC(=O)[C@H](Cc2c[nH]c3ccccc23)NC(=O)[C@H](CO)NC(=O)[C@H](CO)NC(=O)[C@H](Cc2c[nH]cn2)NC(=O)CNC(=O)[C@H](Cc2ccc(O)cc2)NC(=O)[C@H]([C@@H](C)O)NC(=O)[C@@H](C)N(C)C(=O)C[C@@H](C(=O)N2CCCC2)NC(=O)[C@H](Cc2c[nH]c3ccccc23)NC1=O` [PP9] (HELM PEPTIDE1{[C[C@H](C(=O)[*:2])N(C)[*:1]].T.Y.G.H.S.S.W.Y.K.I.W.D.[C1CCN([*:1])C1]}$PEPTIDE1,PEPTIDE1,1:R1-13:R3$$$V2.0) were 8.3 µM, 4.2 µM, 2.7 µM and 10.6 µM.

Source of the values: patent publication US20250018014A1, “METHOD FOR TREATING AND/OR PREVENTING REGNASE-1-RELATED DISEASE” (OSAKA UNIVERSITY, priority 2018, published 2025).
